According to patent US11052131B2, “Methods and pharmaceutical compositions for the treatment of kidney cancer” (INSERM (Institut National de la Santé et de la Recherche …, priority 2016, dated 2021):
Entries after “also recorded” stand apart in the source; their conditions may differ.

Legend:
[1] = target: recombinant human furin (Homo sapiens, UniProt P09958); assay: In vitro enzymatic digestion of Ela peptides with furin (western blot); type: biochemical; conditions: furin 0.2×10^−4U, 4 h, western blotting with anti-Ela antibody
Sequence of recombinant human furin (P09958 108-794): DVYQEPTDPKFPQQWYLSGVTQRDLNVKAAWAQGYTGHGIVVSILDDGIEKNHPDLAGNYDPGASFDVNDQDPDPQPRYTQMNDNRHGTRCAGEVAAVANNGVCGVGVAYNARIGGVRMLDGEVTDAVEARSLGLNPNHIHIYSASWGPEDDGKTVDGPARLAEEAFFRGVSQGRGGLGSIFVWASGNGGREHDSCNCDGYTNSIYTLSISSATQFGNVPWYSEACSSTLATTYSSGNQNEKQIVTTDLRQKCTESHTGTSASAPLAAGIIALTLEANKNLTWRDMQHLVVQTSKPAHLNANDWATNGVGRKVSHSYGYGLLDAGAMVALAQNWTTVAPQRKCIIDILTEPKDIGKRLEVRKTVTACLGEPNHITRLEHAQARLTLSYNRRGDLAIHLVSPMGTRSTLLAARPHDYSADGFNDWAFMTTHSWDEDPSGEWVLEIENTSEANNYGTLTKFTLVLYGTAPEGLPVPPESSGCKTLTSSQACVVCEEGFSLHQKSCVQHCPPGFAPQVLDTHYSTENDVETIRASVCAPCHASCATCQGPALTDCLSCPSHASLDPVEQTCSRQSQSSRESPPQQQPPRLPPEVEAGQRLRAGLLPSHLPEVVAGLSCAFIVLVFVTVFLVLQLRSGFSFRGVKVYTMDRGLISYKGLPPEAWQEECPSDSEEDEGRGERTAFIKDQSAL
Procedure: FIG. 4. ProEla processing. […] As assessed by western blotting using an anti-Ela antibody, furin processes the wild-type proEla 32 at the corresponding physiological cleavage sites.
Ela peptides were digested with furin for 4 h as previously described (Sfaxi et al., 2014, Scamuffa et al., 2008) and were subjected to Western blotting analysis.
The generated in vitro enzymatic digestion products were subjected to SDS-polyacrylamide gel electrophoresis in 13% gels. The primary antibody used was an anti-Ela 11 (Eurogentec). Horseradish peroxidase-conjugated secondary antibody and enhanced chemiluminescence (ECL+Plus, Amersham) were used for primary antibody revelation according to the manufacturers' instructions using a Chemiluminescence imaging system (GeneGnome, Syngene) (Sfaxi et al., 2014, Scamuffa et al., 2008).
The cDNA structure of human ELA predicts an 54 amino acids (aa) pre-proEla. Following the removal of the 22 aa of the signal peptide the hormone is released as proEla of 32 aa. […] To study the importance of the proteolytic maturation of […] by the PCs in the mediation of its function we first assessed experimentally proEla 32 processing by furin using an in vitro digestion assay.

[2] = target: T1, human GFP-APJ fusion protein (Homo sapiens, UniProt P35414); assay: APJ receptor internalization assay in HEK293A cells expressing GFP-APJ; type: cell-based; conditions: 1 μM peptide, 30 min, HEK293 cells expressing GFP-APJ
T1 construct: expressed in transfected cells
T1 sequence (P35414 1-380): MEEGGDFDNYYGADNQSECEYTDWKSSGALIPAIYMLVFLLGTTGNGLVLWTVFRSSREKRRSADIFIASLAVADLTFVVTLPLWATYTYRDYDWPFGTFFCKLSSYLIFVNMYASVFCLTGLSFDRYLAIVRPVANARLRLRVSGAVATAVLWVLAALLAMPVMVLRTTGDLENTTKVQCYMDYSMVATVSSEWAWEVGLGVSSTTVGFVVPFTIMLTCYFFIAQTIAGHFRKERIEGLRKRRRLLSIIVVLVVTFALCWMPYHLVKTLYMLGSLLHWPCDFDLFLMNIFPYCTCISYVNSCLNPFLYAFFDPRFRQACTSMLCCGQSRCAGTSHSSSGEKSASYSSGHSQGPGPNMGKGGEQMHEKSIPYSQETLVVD
Procedure: Cells were fixed with 4% paraformaldehyde for 10 minutes at room temperature and APJ receptor internalization was analyzed using a Nikon epifluorescence microscopy.
Ligand-induced receptor internalization is a cellular response of APJ to ligand binding and its activation.

[3] = tested on: ERK; assay: ERK activation analysis (phospho-ERK western blot) in HEK293A GFP-APJ cells; type: cell-based, human; conditions: 1 μM; for phosphorylation of ERK: within 5 min of treatment
Procedure: (§1) Cells were lysed in RIPA buffer (150 mM NaCl, 50 mM Tris, 1 mM EDTA, 1% NP40, 0.25% sodium deoxycholate, pH8) and were subjected to SDS-PAGE on 12% gels. Cell lysates were analyzed by western blotting for ERK, AKT and P70 phosphorylation using an anti-phospho-ERK; anti-phospho-AKT and anti-phospho-P70 (Cell Signaling), respectively. The blots were stripped and reprobed with ERK, AKT or P70 (Cell Signaling) for data normalization. Primary antibodies were visualized using horseradish peroxidase-conjugated secondary antibodies (Amersham), and signals were detected using ECLPlus chemiluminescence system according to the manufacturers' instructions (Amersham).

[4] = tested on: AKT; assay: AKT activation analysis (phospho-AKT western blot) in HEK293A GFP-APJ cells; type: cell-based, human; conditions: 1 μM; for phosphorylation of AKT: seen after 5 min
Procedure: as §1

[5] = tested on: P70s6K; assay: P70 activation analysis (phospho-P70 western blot) in HEK293A GFP-APJ cells; type: cell-based, human; conditions: 1 μM, same conditions
Procedure: as §1

[6] = tested on: LC3II; assay: mTOR signalling pathway in serum-starved RENCA cells: autophagy (LC3II); type: cell-based, murine; conditions: lentiviral expression in RENCA cells, serum starvation
Procedure: as §1, with “RENCA cells overexpressing lentivirus encoding for wild type proEla, mutant proEla, or only tdTomato, were maintained in serum free media for different time. Cells” for “Cells”, “LC3, NFkB, Erk1/2, AKT, S6K or actin” for “ERK, AKT and P70 phosphorylation”, “anti phosphor NFkB, anti-phospho Erk, anti-phospho-Akt, anti-phospho S6K.” for “an anti-phospho-ERK; anti-phospho-AKT and anti-phospho-P70 (Cell Signaling), respectively.”
(§2) To evaluate the role of Elabela on kidney cancer progression, we used RENCA cells expressing elabela or elabela mutated at the furin site. Cells wera starved of serum for 1, 3, 6, 12 or 24 hours and the effect of Elabela on the mTOR pathway was observed by lookind at the phosphorylation or nfkB, Erk1/2, akt, or S6K.

[7] = tested on: mTORC1 pathway; assay: mTOR signalling pathway in serum-starved RENCA cells: mTORC1 (S6K and S6 phosphorylation); type: cell-based, murine; conditions: lentiviral expression in RENCA cells, serum starvation
Procedure: as §1, with “RENCA cells overexpressing lentivirus encoding for wild type proEla, mutant proEla, or only tdTomato, were maintained in serum free media for different time. Cells” for “Cells”, “LC3, NFkB, Erk1/2, AKT, S6K or actin” for “ERK, AKT and P70 phosphorylation”, “anti phosphor NFkB, anti-phospho Erk, anti-phospho-Akt, anti-phospho S6K.” for “an anti-phospho-ERK; anti-phospho-AKT and anti-phospho-P70 (Cell Signaling), respectively.”
as §2

[8] = tested on: ERK signaling; assay: mTOR signalling pathway in serum-starved RENCA cells: ERK signaling; type: cell-based, murine; conditions: lentiviral expression in RENCA cells, serum starvation
Procedure: as §1, with “RENCA cells overexpressing lentivirus encoding for wild type proEla, mutant proEla, or only tdTomato, were maintained in serum free media for different time. Cells” for “Cells”, “LC3, NFkB, Erk1/2, AKT, S6K or actin” for “ERK, AKT and P70 phosphorylation”, “anti phosphor NFkB, anti-phospho Erk, anti-phospho-Akt, anti-phospho S6K.” for “an anti-phospho-ERK; anti-phospho-AKT and anti-phospho-P70 (Cell Signaling), respectively.”
as §2

[9] = tested on: mTORC2 signaling; assay: mTOR signalling pathway in serum-starved RENCA cells: mTORC2 (P(473)AKT); type: cell-based, murine; conditions: lentiviral expression in RENCA cells, serum starvation
Procedure: as §1, with “RENCA cells overexpressing lentivirus encoding for wild type proEla, mutant proEla, or only tdTomato, were maintained in serum free media for different time. Cells” for “Cells”, “LC3, NFkB, Erk1/2, AKT, S6K or actin” for “ERK, AKT and P70 phosphorylation”, “anti phosphor NFkB, anti-phospho Erk, anti-phospho-Akt, anti-phospho S6K.” for “an anti-phospho-ERK; anti-phospho-AKT and anti-phospho-P70 (Cell Signaling), respectively.”
as §2

[10] = tested on: PI3K signaling; assay: mTOR signalling pathway in serum-starved RENCA cells: PI3K (P(308)AKT); type: cell-based, murine; conditions: lentiviral expression in RENCA cells, serum starvation
Procedure: as §1, with “RENCA cells overexpressing lentivirus encoding for wild type proEla, mutant proEla, or only tdTomato, were maintained in serum free media for different time. Cells” for “Cells”, “LC3, NFkB, Erk1/2, AKT, S6K or actin” for “ERK, AKT and P70 phosphorylation”, “anti phosphor NFkB, anti-phospho Erk, anti-phospho-Akt, anti-phospho S6K.” for “an anti-phospho-ERK; anti-phospho-AKT and anti-phospho-P70 (Cell Signaling), respectively.”
as §2

[11] = tested on: NFkB signaling; assay: mTOR signalling pathway in serum-starved RENCA cells: NFkB; type: cell-based, murine; conditions: lentiviral expression in RENCA cells, serum starvation
Procedure: as §1, with “RENCA cells overexpressing lentivirus encoding for wild type proEla, mutant proEla, or only tdTomato, were maintained in serum free media for different time. Cells” for “Cells”, “LC3, NFkB, Erk1/2, AKT, S6K or actin” for “ERK, AKT and P70 phosphorylation”, “anti phosphor NFkB, anti-phospho Erk, anti-phospho-Akt, anti-phospho S6K.” for “an anti-phospho-ERK; anti-phospho-AKT and anti-phospho-P70 (Cell Signaling), respectively.”
as §2

[12] = tested on: Renca cells; assay: Tumorigenicity assay, Renca cells injected subcutaneously into syngeneic Balb/c mice; type: in vivo; conditions: for tumor growth / tumor progression: 1×10^5 Renca cells stably expressing the construct (lentiviral), subcutaneous, vs control cells with empty vector; for tumor growth inhibition, wild type compared to mutant: subcutaneous Renca tumors, Balb/c mice
[13] = tested on: Renca cells; assay: Kidney tumor progression, subcapsular inoculation of Renca cells in syngenic mice; type: in vivo; conditions: Renca cells expressing the construct (lentiviral), sub-capsular injection
From the text: FIG. 3. Effect of Elabela expression in the kidney tumor cells (Renca) on kidney tumor progression. Elabela wild type (ela wt) or control lentivirus were used to express ela wt in Renca cells prior their subcapsular inoculation in syngenic mice.

[14] = tested on: Renca cells; assay: Wound healing assay; type: cell-based, murine; conditions: in vitro, 8 or 24 h after serum starvation
Procedure: Renca cells were cultivated until sub-confluency. A scratch is realized with a tip on each well and the wound healing is observed after 8 or 24 h after serum starvation.

[15] = tested on: Renca cells; assay: Proliferation assay (IncuCyte ZOOM live cell imaging); type: cell-based, murine; conditions: 2% foetal calf serum, 50 hours
Procedure: FIG. 8. RENCA (20,000 cells 4 cells/well) cells were plated in 96-well plates, proliferation assay was performed using the IncuCyte ZOOM™ live cell imaging system (Essen BioScience, MI USA). This system measures cell density. Cells are routinely propagated in RPMI 1640 medium (Life Technologies) in 2% foetal calf serum at 37° C. Cells are regularly screened for Mycoplasma (ATCC). The plate is placed into the IncuCyte ZOOM™ apparatus and images of the collective cell spreading are recorded every 2 hours for a total duration of 50 hours.

Row | Substance | phosphorylation of ERK after 15 min [3] | phosphorylation of ERK [3] | AKT activation compared to effect on ERK activation [4] | time of peak AKT phosphorylation [4] | phosphorylation of AKT [4] | P70s6K activation [5] | induction of autophagy, estimated by LC3II levels [6] | ERK signaling, determined by ERK phosphorylation [8] | mTORC2 signaling, determined by P(473)AKT [9] | PI3K signaling, determined by P(308)AKT [10] | NFkB signaling [11] | other results
1 | mutant proEla 32: proEla 32 in which cleavage sites R31/R32 and R42/R43 were replaced by S31/S32 and S42/S43 (positions 9, 10, 20, 21 of SEQ ID NO: 1) (QRPVNLTMSSKLRKHNCLQSSCMPLHSRVPFP; listed as Homo sapiens) | reduced | able to induce the phosphorylation of ERK | lower AKT activation while compared to their effect on ERK activation | about 15 min | weak visible phosphorylation of AKT | failed to induce significant effect | block in the induction of autophagy | enhanced inhibition of ERK signaling | No effect in mTORC2 signaling | No effect in PI3K signaling | No effect in NFkB signaling | processing by furin, products generated ([1]; listed as mut proEla 32): failed to generate any products; processing by furin, products generated ([1]; listed as mutant peptide ProEla 32): failed to generate any mature Ela products; APJ internalization [2]: able to activate the APJ receptor and mediate its internalization; mTORC1 pathway, determined by S6K and S6 phosphorylation ([7]; listed as MUT): sustained activation of mTORC1 pathway; also recorded: induced mTORC1 activation; tumor growth / tumor progression [12]: reduced significantly tumor growth; tumor growth / tumor progression ([12]; listed as mut ProEla): smaller size of tumors; tumor growth / tumor progression ([12]; listed as mutant ELA polypeptide): capable of inhibiting tumor progression
2 | QRPVNLTMRRKLRKHNCLQRRCMPLHSRVPFP [wild type proEla 32] | reduced | able to induce the phosphorylation of ERK | lower AKT activation while compared to their effect on ERK activation | about 15 min | weak visible phosphorylation of AKT | failed to induce significant effect | block in the induction of autophagy | enhanced inhibition of ERK signaling | No effect in mTORC2 signaling | No effect in PI3K signaling | No effect in NFkB signaling | processing by furin, products generated ([1]; listed as wild type proEla): generated predominantly the mature Ela 11 aa; processing by furin, products generated ([1]; listed as wild-type proEla 32): generates only the Ela 11 aa; ERK activation compared between the peptides ([3]; same conditions): higher as compared to mut proEla and Ela 11 effect; mTORC1 pathway, determined by S6K and S6 phosphorylation ([7]; listed as WT): sustained activation of mTORC1 pathway; also recorded: induced mTORC1 activation; tumor growth / tumor progression ([12]; listed as Ela): inhibits tumor progression; tumor growth / tumor progression ([12]; listed as wild type proEla): smaller size of tumors; tumor growth / tumor progression ([12]; listed as wild-type proEla 32): reduced significantly tumor growth; tumor growth inhibition, wild type compared to mutant [12]: inhibit more efficiently tumor growth while compared to mutant proEla 32; tumor growth inhibition, wild type compared to mutant ([12]; listed as Wild type proEla 32): inhibited more efficiently tumor growth while compared to mutant pro Ela 32; tumor progression [13]: inhibits tumor progression; wound healing of Renca cells [14]: inhibits wound healing of Renca cells; cells proliferation [15]: inhibits renca cells proliferation
